Test results published in patent publication US9598433B2, “Hepatitis C virus inhibitors” (BRISTOL-MYERS SQUIBB COMPANY, priority 2012, dated 2017).
Like-named read-outs stand apart in the source and are kept apart here.

Tests used:
[1] = test system: HCV genotype 1a (H77 strain) replicon in HUH-7 cells; assay: HCV replicon luciferase reporter assay, genotype 1a; assay type: cell-based; details: Hepatitis C virus, 72 h, genotype 1a replicon, 3 days incubation
How it was run: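 Stable HUH-7 line carrying luciferase-reporter genotype 1a (H77) replicon with adaptive NS3 P1496L and NS5A S2204I mutations; 3.0×10^3 cells/well in 4% FCS, 0.5% DMSO, twenty-point 3-fold titration, 3 days at 37 °C. Renilla luminescence with 7.5 μM EnduRen; EC50 by four-parameter logistic fit; CC50 by multiplexed Cell Titer-Blue.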

[2] = test system: HCV genotype 1b (Con1) replicon in HUH-7 cells; assay: HCV replicon luciferase reporter assay, genotype 1b; assay type: cell-based; details: Hepatitis C virus, 72 h, genotype 1b replicon, 3 days incubation
How it was run: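 Replication was read as Renilla luciferase signal, using 7.5 μM EnduRen substrate with a 2-h incubation at 37 °C. The signal came from a HUH-7 line constitutively expressing a luciferase-tagged 1b (Con1) replicon carrying S1179I.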

**Q.** With `C[C@@H]1CC/C=C\[C@@H]2C[C@@]2(C(=O)NS(=O)(=O)C2(C)CC2)NC(=O)[C@@H]2C[C@@H](Oc3nccc4c5c(ccc34)OCCO5)CN2C(=O)[C@@H](NC(=O)OC(C)(C)C(C)(F)F)[C@H](C)O1` [Compound 2010, 3,3-difluoro-2-methylbutan-2-yl ((2R,6S,7S,9R,13aS,14aR,16aS,Z)-2-((2,3-dihydro[1,4]dioxino[2,3-f]isoquinolin-7-yl)oxy)-7,9-dimethyl-14a-(((1-methylcyclopropyl)sulfonyl)carbamoyl)-5,16-dioxo-2,3,5,6,7,9,10,11,13a,14,14a,15,16,16a-tetradecahydro-1H-cyclopropa[i]pyrrolo[1,2-e][1,5,8]oxadiazacyclopentadecin-6-yl)carbamate] as the compound, how does the EC50 ([1]; read-out: LE_1a (EC50, range)) read?
**A.** Its EC50 is 1.01 to 5 nM.

**Q.** And the EC50 ([2]; read-out: LE_1b (EC50, range))?
**A.** Its EC50 is 0.51 to 1 nM.

**Q.** Which results are given for `COc1ccc2c(O[C@@H]3C[C@H]4C(=O)N[C@]5(C(=O)NS(=O)(=O)C6(C)CC6)C[C@H]5/C=C\CC[C@@H](C)O[C@@H](C)[C@H](NC(=O)OC(C)(C)C(F)(F)F)C(=O)N4C3)nc(-c3ccc(OC(C)C)cn3)cc2c1` [Compound 2011, 1,1,1-trifluoro-2-methylpropan-2-yl ((2R,6S,7S,9R,13a5,14aR,16aS,Z)-2-((3-(5-isopropoxypyridin-2-yl)-6-methoxyisoquinolin-1-yl)oxy)-7,9-dimethyl-14a-(((1-methylcyclopropyl)sulfonyl)carbamoyl)-5,16-dioxo-2,3,5,6,7,9,10,11,13a,14,14a,15,16,16a-tetradecahydro-1H-cyclopropa[i]pyrrolo[1,2-e][1,5,8]oxadiazacyclopentadecin-6-yl)carbamate]?
**A.** EC50 ([1]; read-out: LE_1a (EC50, range)): 0.51 to 1 nM; EC50 ([2]; read-out: LE_1b (EC50, range)): 0.1 to 0.5 nM

**Q.** For `COc1ccc2c(O[C@@H]3C[C@H]4C(=O)N[C@]5(C(=O)NS(=O)(=O)C6(C)CC6)C[C@H]5/C=C\CC[C@@H](C)O[C@@H](C)[C@H](NC(=O)OC(C)(C)C(C)(F)F)C(=O)N4C3)nc(-c3ccc(OC(C)C)cn3)cc2c1` [Compound 2012, 3,3-difluoro-2-methylbutan-2-yl ((2R,6S,7S,9R,13a5,14aR,16aS,Z)-2-((3-(5-isopropoxypyridin-2-yl)-6-methoxyisoquinolin-1-yl)oxy)-7,9-dimethyl-14a-(((1-methylcyclopropyl)sulfonyl)carbamoyl)-5,16-dioxo-2,3,5,6,7,9,10,11,13a,14,14a,15,16,16a-tetradecahydro-1H-cyclopropa[i]pyrrolo[1,2-e][1,5,8]oxadiazacyclopentadecin-6-yl)carbamate], which EC50 ([1]; read-out: LE_1a (EC50, range)) is on record?
**A.** The EC50 was 0.1 to 0.5 nM.

**Q.** And the EC50 ([2]; read-out: LE_1b (EC50, range))?
**A.** Its EC50 is 0.1 to 0.5 nM.

**Q.** Which results are given for `COc1ccc2c(O[C@@H]3C[C@H]4C(=O)N[C@]5(C(=O)NS(=O)(=O)C6(CF)CC6)C[C@H]5/C=C\CC[C@@H](C)O[C@@H](C)[C@H](NC(=O)OC(C)(C)C(F)(F)F)C(=O)N4C3)nccc2c1` [Compound 2013, 1,1,1-trifluoro-2-methylpropan-2-yl ((2R,6S,7S,9R,13a5,14aR,16aS,Z)-14a-(((1-(fluoromethyl)cyclopropyl)sulfonyl)carbamoyl)-2-((6-methoxyisoquinolin-1-yl)oxy)-7,9-dimethyl-5,16-dioxo-2,3,5,6,7,9,10,11,13a,14,14a,15,16,16a-tetradecahydro-1H-cyclopropa[i]pyrrolo[1,2-e][1,5,8]oxadiazacyclopentadecin-6-yl)carbamate]?
**A.** EC50 ([1]; read-out: LE_1a (EC50, range)): 1.01 to 5 nM; EC50 ([2]; read-out: LE_1b (EC50, range)): 0.51 to 1 nM

**Q.** With `COc1ccc2c(O[C@@H]3C[C@H]4C(=O)N[C@]5(C(=O)NS(=O)(=O)C6(CF)CC6)C[C@H]5/C=C\CC[C@@H](C)O[C@@H](C)[C@H](NC(=O)OC(C)(C)C(C)(F)F)C(=O)N4C3)nccc2c1` [Compound 2014, 3,3-difluoro-2-methylbutan-2-yl ((2R,6S,7S,9R,13aS,14aR,16aS,Z)-14a-(((1-(fluoromethyl)cyclopropyl)sulfonyl)carbamoyl)-2-((6-methoxyisoquinolin-1-yl)oxy)-7,9-dimethyl-5,16-dioxo-2,3,5,6,7,9,10,11,13a,14,14a,15,16,16a-tetradecahydro-1H-cyclopropa[i]pyrrolo[1,2-e][1,5,8]oxadiazacyclopentadecin-6-yl)carbamate] as the compound, how does the EC50 ([1]; read-out: LE_1a (EC50)) read?
**A.** The EC50 was 2.38 nM.

**Q.** And the EC50 ([1]; read-out: LE_1a (EC50, range))?
**A.** The EC50 was 1.01 to 5 nM.

**Q.** And the EC50 ([2]; read-out: LE_1b (EC50))?
**A.** The EC50 was 0.66 nM.

**Q.** And the EC50 ([2]; read-out: LE_1b (EC50, range))?
**A.** The EC50 was 0.51 to 1 nM.

**Q.** `COc1cnc(O[C@@H]2C[C@H]3C(=O)N[C@]4(C(=O)NS(=O)(=O)C5(CF)CC5)C[C@H]4/C=C\CC[C@@H](C)O[C@@H](C)[C@H](NC(=O)OC(C)(C)C(F)(F)F)C(=O)N3C2)c2ccccc12` [Compound 2015, 1,1,1-trifluoro-2-methylpropan-2-yl ((2R,6S,7S,9R,13a5,14aR,16aS,Z)-14a-(((1-(fluoromethyl)cyclopropyl)sulfonyl)carbamoyl)-2-((4-methoxyisoquinolin-1-yl)oxy)-7,9-dimethyl-5,16-dioxo-2,3,5,6,7,9,10,11,13a,14,14a,15,16,16a-tetradecahydro-1H-cyclopropa[i]pyrrolo[1,2-e][1,5,8]oxadiazacyclopentadecin-6-yl)carbamate] was tested. Which EC50 ([1]; read-out: LE_1a (EC50, range)) did it give?
**A.** Its EC50 is 1.01 to 5 nM.

**Q.** And the EC50 ([2]; read-out: LE_1b (EC50, range))?
**A.** Its EC50 is 0.51 to 1 nM.

**Q.** What does the source list for `COc1cnc(O[C@@H]2C[C@H]3C(=O)N[C@]4(C(=O)NS(=O)(=O)C5(CF)CC5)C[C@H]4/C=C\CC[C@@H](C)O[C@@H](C)[C@H](NC(=O)OC(C)(C)C(F)F)C(=O)N3C2)c2ccccc12` [Compound 2016, 1,1-difluoro-2-methylpropan-2-yl ((2R,6S,7S,9R,13aS,14aR,16aS,Z)-14a-(((1-(fluoromethyl)cyclopropyl)sulfonyl)carbamoyl)-2-((4-methoxyisoquinolin-1-yl)oxy)-7,9-dimethyl-5,16-dioxo-2,3,5,6,7,9,10,11,13a,14,14a,15,16,16a-tetradecahydro-1H-cyclopropa[i]pyrrolo[1,2-e][1,5,8]oxadiazacyclopentadecin-6-yl)carbamate]?
**A.** EC50 ([1]; read-out: LE_1a (EC50, range)): 1.01 to 5 nM; EC50 ([2]; read-out: LE_1b (EC50, range)): 0.51 to 1 nM

**Q.** What does the source list for `COc1cc(F)cc2c(O[C@@H]3C[C@H]4C(=O)N[C@]5(C(=O)NS(=O)(=O)C6(C)CC6)C[C@H]5/C=C\CC[C@@H](C)O[C@@H](C)[C@H](NC(=O)OC(C)(C)C(F)(F)F)C(=O)N4C3)nccc12` [Compound 2017, 1,1,1-trifluoro-2-methylpropan-2-yl ((2R,6S,7S,9R,13aS,14aR,16aS,Z)-2-((7-fluoro-5-methoxyisoquinolin-1-yl)oxy)-7,9-dimethyl-14a-(((1-methylcyclopropyl)sulfonyl)carbamoyl)-5,16-dioxo-2,3,5,6,7,9,10,11,13a,14,14a,15,16,16a-tetradecahydro-1H-cyclopropa[i]pyrrolo[1,2-e][1,5,8]oxadiazacyclopentadecin-6-yl)carbamate]?
**A.** EC50 ([1]; read-out: LE_1a (EC50)): 0.89 nM; EC50 ([1]; read-out: LE_1a (EC50, range)): 0.51 to 1 nM; EC50 ([2]; read-out: LE_1b (EC50)): 0.42 nM; EC50 ([2]; read-out: LE_1b (EC50, range)): 0.1 to 0.5 nM

**Q.** For `COc1cc(F)cc2c(O[C@@H]3C[C@H]4C(=O)N[C@]5(C(=O)NS(=O)(=O)C6(C)CC6)C[C@H]5/C=C\CC[C@@H](C)O[C@@H](C)[C@H](NC(=O)OC(C)(C)C(C)(F)F)C(=O)N4C3)nccc12` [Compound 2018, 3,3-difluoro-2-methylbutan-2-yl ((2R,6S,7S,9R,13aS,14aR,16aS,Z)-2-((7-fluoro-5-methoxyisoquinolin-1-yl)oxy)-7,9-dimethyl-14a-(((1-methylcyclopropyl)sulfonyl)carbamoyl)-5,16-dioxo-2,3,5,6,7,9,10,11,13a,14,14a,15,16,16a-tetradecahydro-1H-cyclopropa[i]pyrrolo[1,2-e][1,5,8]oxadiazacyclopentadecin-6-yl)carbamate], which EC50 ([1]; read-out: LE_1a (EC50, range)) is on record?
**A.** Its EC50 is 0.51 to 1 nM.

**Q.** What about the EC50 ([2]; read-out: LE_1b (EC50, range)) of the same compound?
**A.** The EC50 was 0.1 to 0.5 nM.

**Q.** Which results are given for `COc1cc(F)cc2c(O[C@@H]3C[C@H]4C(=O)N[C@]5(C(=O)NS(=O)(=O)C6(C)CC6)C[C@H]5/C=C\CC[C@@H](C)O[C@@H](C)[C@H](NC(=O)OC(C)(C)C(F)F)C(=O)N4C3)nccc12` [Compound 2019, 1,1-difluoro-2-methylpropan-2-yl ((2R,6S,7S,9R,13aS,14aR,16aS,Z)-2-((7-fluoro-5-methoxyisoquinolin-1-yl)oxy)-7,9-dimethyl-14a-(((1-methylcyclopropyl)sulfonyl)carbamoyl)-5,16-dioxo-2,3,5,6,7,9,10,11,13a,14,14a,15,16,16a-tetradecahydro-1H-cyclopropa[i]pyrrolo[1,2-e][1,5,8]oxadiazacyclopentadecin-6-yl)carbamate]?
**A.** EC50 ([1]; read-out: LE_1a (EC50, range)): 1.01 to 5 nM; EC50 ([2]; read-out: LE_1b (EC50, range)): 0.51 to 1 nM

**Q.** How did the EC50 ([1]; read-out: LE_1a (EC50, range)) turn out when `COc1cc(F)cc2c(O[C@@H]3C[C@H]4C(=O)N[C@]5(C(=O)NS(=O)(=O)C6(CF)CC6)C[C@H]5/C=C\CC[C@@H](C)O[C@@H](C)[C@H](NC(=O)OC(C)(C)C(F)(F)F)C(=O)N4C3)nccc12` [Compound 2020, 1,1,1-trifluoro-2-methylpropan-2-yl ((2R,6S,7S,9R,13aS,14aR,16aS,Z)-2-((7-fluoro-5-methoxyisoquinolin-1-yl)oxy)-14a-(((1-(fluoromethyl)cyclopropyl)sulfonyl)carbamoyl)-7,9-dimethyl-5,16-dioxo-2,3,5,6,7,9,10,11,13a,14,14a,15,16,16a-tetradecahydro-1H-cyclopropa[i]pyrrolo[1,2-e][1,5,8]oxadiazacyclopentadecin-6-yl)carbamate] was run?
**A.** Its EC50 is 1.01 to 5 nM.

**Q.** What about the EC50 ([2]; read-out: LE_1b (EC50, range)) of the same compound?
**A.** Its EC50 is 0.51 to 1 nM.

**Q.** For `COc1cc(F)cc2c(O[C@@H]3C[C@H]4C(=O)N[C@]5(C(=O)NS(=O)(=O)C6(CF)CC6)C[C@H]5/C=C\CC[C@@H](C)O[C@@H](C)[C@H](NC(=O)OC(C)(C)C(C)(F)F)C(=O)N4C3)nccc12` [Compound 2021, 3,3-difluoro-2-methylbutan-2-yl ((2R,6S,7S,9R,13aS,14aR,16aS,Z)-2-((7-fluoro-5-methoxyisoquinolin-1-yl)oxy)-14a-(((1-(fluoromethyl)cyclopropyl)sulfonyl)carbamoyl)-7,9-dimethyl-5,16-dioxo-2,3,5,6,7,9,10,11,13a,14,14a,15,16,16a-tetradecahydro-1H-cyclopropa[i]pyrrolo[1,2-e][1,5,8]oxadiazacyclopentadecin-6-yl)carbamate], which EC50 ([1]; read-out: LE_1a (EC50, range)) is on record?
**A.** The EC50 was 1.01 to 5 nM.

**Q.** And the EC50 ([2]; read-out: LE_1b (EC50, range))?
**A.** The EC50 was 0.51 to 1 nM.
